{"source": "patent US8426437B2", "about": "“Pyrroloquinoline derivatives and their use as protein kinases inhibitors” (Pierre Fabre Medicament, priority 2005, dated 2013)", "note": "Where a name gives a salt, the structure may show the parent alone."}
{"molecular_target": "T1, RET (Homo sapiens, UniProt P07949)", "T1 construct": "purchased Upstate 14-570MG", "T1 sequence (P07949 29-1114)": "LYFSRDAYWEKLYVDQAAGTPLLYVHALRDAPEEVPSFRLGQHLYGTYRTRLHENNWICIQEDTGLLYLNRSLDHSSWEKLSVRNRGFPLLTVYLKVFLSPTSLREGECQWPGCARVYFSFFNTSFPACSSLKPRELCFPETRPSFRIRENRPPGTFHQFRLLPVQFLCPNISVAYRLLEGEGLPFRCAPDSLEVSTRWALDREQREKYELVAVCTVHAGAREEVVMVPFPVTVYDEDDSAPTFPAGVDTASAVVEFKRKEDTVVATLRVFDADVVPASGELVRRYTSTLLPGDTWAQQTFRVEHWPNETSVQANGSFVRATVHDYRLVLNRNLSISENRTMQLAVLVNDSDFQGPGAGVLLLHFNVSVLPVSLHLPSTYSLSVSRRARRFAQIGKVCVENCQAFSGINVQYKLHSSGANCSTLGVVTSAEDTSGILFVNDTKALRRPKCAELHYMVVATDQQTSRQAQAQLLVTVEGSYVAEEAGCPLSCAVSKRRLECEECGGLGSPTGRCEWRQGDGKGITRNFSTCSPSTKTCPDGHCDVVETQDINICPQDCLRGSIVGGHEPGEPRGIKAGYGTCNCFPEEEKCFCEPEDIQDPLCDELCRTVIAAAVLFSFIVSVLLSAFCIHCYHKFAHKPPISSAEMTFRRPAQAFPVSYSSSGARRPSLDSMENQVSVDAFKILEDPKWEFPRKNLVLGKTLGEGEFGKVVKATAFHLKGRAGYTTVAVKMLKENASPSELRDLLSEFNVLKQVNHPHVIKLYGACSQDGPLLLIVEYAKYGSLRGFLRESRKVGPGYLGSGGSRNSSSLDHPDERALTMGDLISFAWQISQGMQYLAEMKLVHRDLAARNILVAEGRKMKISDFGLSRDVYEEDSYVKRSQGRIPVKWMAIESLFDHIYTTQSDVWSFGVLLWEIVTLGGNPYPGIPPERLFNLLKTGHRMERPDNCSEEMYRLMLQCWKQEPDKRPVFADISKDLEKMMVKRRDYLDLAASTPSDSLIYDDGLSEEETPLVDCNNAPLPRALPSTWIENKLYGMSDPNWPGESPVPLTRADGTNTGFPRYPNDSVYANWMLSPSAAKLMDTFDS", "experiment": "Inhibition of RET kinase activity, recombinant RET method (Kinase-Glo)", "assay_type": "biochemical", "conditions": "RET 2 μg/ml, poly-EY4 substrate, 20 μM ATP, two hours at 30° C.", "how_it_was_run": "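Recombinant RET at 2 μg/ml in 20 mM MOPS/NaOH pH 7.0, 1 mM EDTA, 5% glycerol, 0.01% Brij35, 0.1% 2-mercaptoethanol, 1 mg/ml BSA; compounds 10 nM–30 μM final.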", "units": {"IC50": "nM"}}
{"smiles": "CCCOC(=O)c1c[nH]c2c(=O)[nH]c3ccc(S(=O)(=O)N4CCC(NC)C4)cc3c12", "note": "(stereo not drawn) [Compound 168, 8-(3-Methylamino-pyrrolidine-1-sulfonyl)-4-oxo-4,5-dihydro-3H-pyrrolo[2,3-c]quinoline-1-propyl carboxylate hydrochloride]", "IC50": "100 to 1000"}
{"smiles": "CCCOC(=O)c1c[nH]c2c(=O)[nH]c3ccc(S(=O)(=O)N4CCC(N(C)C(=O)OC(C)(C)C)C4)cc3c12", "note": "(stereo not drawn) [Compound 169, 8-[3-(tert-Butoxycarbonyl-methyl-amino)-pyrrolidine-1-sulfonyl]-4-oxo-4,5-dihydro-3H-pyrrolo[2,3-c]quinoline-1-propyl carboxylate]", "IC50": "1000 to 10000"}
{"smiles": "CN(C(=O)OC(C)(C)C)C1CCN(S(=O)(=O)c2ccc3[nH]c(=O)c4[nH]cc(C(=O)O)c4c3c2)C1", "note": "(stereo not drawn) [Compound 170, 8-[3-(tert-Butoxycarbonyl-methyl-amino)-pyrrolidine-1-sulfonyl]-4-oxo-4,5-dihydro-3H-pyrrolo[2,3-c]quinoline-1-carboxylic acid]", "IC50": "10000 to 100000"}
{"smiles": "CCCOC(=O)c1c[nH]c2c(=O)[nH]c3ccc(S(=O)(=O)N4CC[C@H](N(C)C)C4)cc3c12", "note": "[Compound 171]", "IC50": "100 to 1000"}
{"smiles": "CCCOC(=O)c1c[nH]c2c(=O)[nH]c3ccc(S(=O)(=O)N4CC[C@@H](N(C)C)C4)cc3c12", "note": "[Compound 172]", "IC50": "1000 to 10000"}
{"smiles": "CCCOC(=O)c1c[nH]c2c(=O)[nH]c3ccc(S(=O)(=O)N(CCO)C(C)C)cc3c12", "note": "[Compound 173, 8-[(2-Hydroxy-ethyl)isopropyl-sulfamoyl]-4-oxo-4,5-dihydro-3H-pyrrolo[2,3-c]quinoline-1-propyl carboxylate]", "IC50": "< 100"}
{"smiles": "CCCOC(=O)c1c[nH]c2c(=O)[nH]c3ccc(S(=O)(=O)N(CCO)C4CC4)cc3c12", "note": "[Compound 174, 8-[Cyclopropyl-(2-hydroxy-ethyl)-sulfamoyl]-4-oxo-4,5-dihydro-3H-pyrrolo[2,3-c]quinoline-1-propyl carboxylate]", "IC50": "< 100"}
{"smiles": "C#CCN(CCO)S(=O)(=O)c1ccc2[nH]c(=O)c3[nH]cc(C(=O)OCCC)c3c2c1", "note": "[Compound 175, 8-[(2-Hydroxy-ethyl)-prop-2-ynyl-sulfamoyl]-4-oxo-4,5-dihydro-3H-pyrrolo[2,3-c]quinoline-1-propyl carboxylate]", "IC50": "100 to 1000"}
{"smiles": "CCCOC(=O)c1c[nH]c2c(=O)[nH]c3ccc(S(=O)(=O)N(CCO)CCO)cc3c12", "note": "[Compound 176, 8-[bis-(2-Hydroxy-ethyl)-sulfamoyl]-4-oxo-4,5-dihydro-3H-pyrrolo[2,3-c]quinoline-1-propyl carboxylate]", "IC50": "100 to 1000"}
{"smiles": "CN(CC(N)=O)S(=O)(=O)c1ccc2[nH]c(=O)c3[nH]cc(C(=O)O)c3c2c1", "note": "[Compound 178, 8-(Carbamoylmethyl-methyl-sulfamoyl)-4-oxo-4,5-dihydro-3H-pyrrolo[2,3-c]quinoline-1-carboxylic acid]", "IC50": "1000 to 10000"}
{"smiles": "CCCOC(=O)c1c[nH]c2c(=O)[nH]c3ccc(S(=O)(=O)N4CCCC(C(N)=O)C4)cc3c12", "note": "(stereo not drawn) [Compound 179, 8-(3-Carbamoyl-piperidine-1-sulfonyl)-4-oxo-4,5-dihydro-3H-pyrrolo[2,3-c]quinoline-1-propyl carboxylate]", "IC50": "100 to 1000"}
{"smiles": "NC(=O)C1CCCN(S(=O)(=O)c2ccc3[nH]c(=O)c4[nH]cc(C(=O)O)c4c3c2)C1", "note": "(stereo not drawn) [Compound 180, 8-(3-Carbamoyl-piperidine-1-sulfonyl)-4-oxo-4,5-dihydro-3H-pyrrolo[2,3-c]quinoline-1-carboxylic acid]", "IC50": "10000 to 100000"}
{"smiles": "CCCOC(=O)c1c[nH]c2c(=O)[nH]c3ccc(S(=O)(=O)N(CCOCc4ccccc4)C4CC4)cc3c12", "note": "[Compound 181, 8-[(2-Benzyloxy-ethyl)-cyclopropyl-sulfamoyl]-4-oxo-4,5-dihydro-3H-pyrrolo[2,3-c]quinoline-1-propyl carboxylate]", "IC50": "1000 to 10000"}
{"smiles": "CCCOC(=O)c1c[nH]c2c(=O)[nH]c3ccc(S(=O)(=O)N(C)CC(=O)O)cc3c12", "note": "[Compound 182, 8-(Carboxymethyl-methyl-sulfamoyl)-4-oxo-4,5-dihydro-3H-pyrrolo[2,3-c]quinoline-1-propyl carboxylate]", "IC50": "1000 to 10000"}
{"smiles": "CCCOC(=O)c1c[nH]c2c(=O)[nH]c3ccc(S(=O)(=O)N(C)CC(=O)OC(C)(C)C)cc3c12", "note": "[Compound 183, 8-(tert-Butoxycarbonylmethyl-methyl-sulfamoyl)-4-oxo-4,5-dihydro-3H-pyrrolo[2,3-c]quinoline-1-propyl carboxylate]", "IC50": "1000 to 10000"}
{"smiles": "CCCOC(=O)c1c[nH]c2c(=O)[nH]c3cc(F)c(S(=O)(=O)N(C)CCN(C)C)cc3c12", "note": "[Compound 184, 8-[(2-Dimethylamino-ethyl)-methyl-sulfamoyl]-7-fluoro-4-oxo-4,5-dihydro-3H-pyrrolo[2,3-c]quinoline-1-propyl carboxylate]", "IC50": "< 100"}
{"smiles": "CCCOC(=O)c1c[nH]c2c(=O)[nH]c3cc(F)c(S(=O)(=O)N(CCO)C(C)C)cc3c12", "note": "[Compound 185, 7-Fluoro-8-[(2-hydroxy-ethyl)-isopropyl-sulfamoyl]-4-oxo-4,5-dihydro-3H-pyrrolo[2,3-c]quinoline-1-propyl carboxylate]", "IC50": "< 100"}
{"smiles": "CCCOC(=O)c1c[nH]c2c(=O)[nH]c3cc(F)c(S(=O)(=O)N(C)C)cc3c12", "note": "[Compound 186, 8-Dimethylsulfamoyl-7-fluoro-4-oxo-4,5-dihydro-3H-pyrrolo[2,3-c]quinoline-1-propyl carboxylate]", "IC50": "100 to 1000"}
{"smiles": "CCCOC(=O)c1c[nH]c2c(=O)[nH]c3cc(F)c(S(=O)(=O)N(C)C4CC4)cc3c12", "note": "[Compound 187, 8-(Cyclopropyl-methyl-sulfamoyl)-7-fluoro-4-oxo-4,5-dihydro-3H-pyrrolo[2,3-c]quinoline-1-propyl carboxylate]", "IC50": "100 to 1000"}
{"smiles": "CCCOC(=O)c1c[nH]c2c(=O)[nH]c3cc(OC)c(S(=O)(=O)N(C)C4CC4)cc3c12", "note": "[Compound 188]", "IC50": "1000 to 10000"}
{"smiles": "CCCOC(=O)c1c[nH]c2c(=O)[nH]c3cc(Cl)c(S(=O)(=O)N(C)C)cc3c12", "note": "[Compound 189, 7-Chloro-8-dimethylsulfamoyl-4-oxo-4,5-dihydro-3H-pyrrolo[2,3-c]quinoline-1-propyl carboxylate]", "IC50": "100 to 1000"}
{"smiles": "COC(=O)c1c[nH]c2c(=O)[nH]c3ccc(S(=O)(=O)NN4CCCCC4)cc3c12", "note": "[Compound 191, 4-Oxo-8-(piperidin-1-ylsulfamoyl)-4,5-dihydro-3H-pyrrolo[2,3-c]quinoline-1-methyl carboxylate]", "IC50": "1000 to 10000"}
{"smiles": "COC(=O)c1c[nH]c2c(=O)[nH]c3ccc(S(=O)(=O)NN4CC5CCCC5C4)cc3c12", "note": "(stereo not drawn) [Compound 192, 8-(Hexahydro-cyclopenta[c]pyrrol-2-ylsulfamoyl)-4-oxo-4,5-dihydro-3H-pyrrolo[2,3-c]quinoline-1-methyl carboxylate]", "IC50": "1000 to 10000"}
{"smiles": "COC(=O)c1c[nH]c2c(=O)[nH]c3ccc(S(=O)(=O)NN4CCN(C)CC4)cc3c12", "note": "[Compound 193, 8-(4-Methyl-piperazin-1-ylsulfamoyl)-4-oxo-4,5-dihydro-3H-pyrrolo[2,3-c]quinoline-1-methyl carboxylate]", "IC50": "1000 to 10000"}
{"smiles": "CCOC(=O)c1c[nH]c2c(=O)[nH]c3ccc(S(=O)(=O)Cc4ccncc4)cc3c12", "note": "[Compound 195, 4-Oxo-8-(pyridin-4-ylmethanesulfonyl)-4,5-dihydro-3H-pyrrolo[2,3-c]quinoline-1-ethyl carboxylate]", "IC50": "100 to 1000"}
{"smiles": "CCOC(=O)c1c[nH]c2c(=O)[nH]c3ccc(S(=O)(=O)Cc4ccccn4)cc3c12", "note": "[Compound 196, 4-Oxo-8-(pyridin-2-ylmethanesulfonyl)-4,5-dihydro-3H-pyrrolo[2,3-c]quinoline-1-ethyl carboxylate]", "IC50": "100 to 1000"}
{"smiles": "CCOC(=O)c1c[nH]c2c(=O)[nH]c3ccc(S(=O)(=O)C4CCCCC4)cc3c12", "note": "[Compound 197, 8-Cyclohexanesulfonyl-4-oxo-4,5-dihydro-3H-pyrrolo[2,3-c]quinoline-1-ethyl carboxylate]", "IC50": "100 to 1000"}
{"smiles": "CCOC(=O)c1c[nH]c2c(=O)[nH]c3ccc([S+]([O-])Cc4ccccc4)cc3c12", "note": "(stereo not drawn) [Compound 198, 4-Oxo-8-phenylmethanesulfinyl-4,5-dihydro-3H-pyrrolo[2,3-c]quinoline-1-ethyl carboxylate]", "IC50": "100 to 1000"}
{"smiles": "C#Cc1ccc2[nH]c(=O)c3[nH]cc(C(=O)OCC)c3c2c1", "note": "[Compound 199, 8-Ethynyl-4-oxo-4,5-dihydro-3H-pyrrolo[2,3-c]quinoline-1-ethyl carboxylate]", "IC50": "1000 to 10000"}
{"smiles": "CCOC(=O)c1c[nH]c2c(=O)[nH]c3ccc(C#C[Si](C)(C)C)cc3c12", "note": "[Compound 200, 4-Oxo-8-trimethylsilanylethynyl-4,5-dihydro-3H-pyrrolo[2,3-c]quinoline-1-ethyl carboxylate]", "IC50": "1000 to 10000"}
{"smiles": "CCOC(=O)c1c[nH]c2c(=O)[nH]c3ccc(C#Cc4ccccc4)cc3c12", "note": "[Compound 201, 4-Oxo-8-phenylethynyl-4,5-dihydro-3H-pyrrolo[2,3-c]quinoline-1-ethyl carboxylate]", "IC50": "1000 to 10000"}
{"smiles": "CCOC(=O)c1c[nH]c2c(=O)[nH]c3ccc(C#Cc4ccccn4)cc3c12", "note": "[Compound 202, 4-Oxo-8 pyridin-2-ylethynyl-4,5-dihydro-3H-pyrrolo[2,3-c]quinoline-1-ethyl carboxylate]", "IC50": "1000 to 10000"}
{"smiles": "CCOC(=O)c1c[nH]c2c(=O)[nH]c3ccc(C#CCN(C)C)cc3c12", "note": "[Compound 203, 8-(3-Dimethylamino-prop-1-ynyl)-4-oxo-4,5-dihydro-3H-pyrrolo[2,3-c]quinoline-1-ethyl carboxylate]", "IC50": "100 to 1000"}
{"smiles": "CCOC(=O)c1c[nH]c2c(=O)[nH]c3ccc(C#CC(C)(C)O)cc3c12", "note": "[Compound 204, 8-(3-Hydroxy-3-methyl-but-1-ynyl)-4-oxo-4,5-dihydro-3H-pyrrolo[2,3-c]quinoline-1-ethyl carboxylate]", "IC50": "100 to 1000"}
{"smiles": "CCOC(=O)c1c[nH]c2c(=O)[nH]c3ccc(C#CCN4CCOCC4)cc3c12", "note": "[Compound 205, 8-(3-Morpholin-4-yl-prop-1-ynyl)-4-oxo-4,5-dihydro-3H-pyrrolo[2,3-c]quinoline-1-ethyl carboxylate]", "IC50": "100 to 1000"}
{"smiles": "CCOC(=O)c1c[nH]c2c(=O)[nH]c3ccc(C#CCN(C)CCC#N)cc3c12", "note": "[Compound 206, 8-{3-[(2-Cyano-ethylmethyl-amino]-prop-1-ynyl}-4-oxo-4,5-dihydro-3H-pyrrolo[2,3-c]quinoline-1-ethyl carboxylate]", "IC50": "100 to 1000"}
